System: MDA-MB-435 TRAIL sensitization, ATPlite luminescence, 24 h
Assay: PubChem AID 2619

CSc1nc(-c2ccc(C)cc2)nc(C(Cl)Cl)n1
cytotoxicity with TRAIL (at 10 µM (top of the series)): 82%
cytotoxicity (compound alone without TRAIL, at 10 µM, stronger effect = higher value): 1%
